How the values were obtained:
Assay type in all cases: biochemical
hCA-XII [1] = target: T1, hCA-XII (Homo sapiens, UniProt O43570); experiment: Carbonic anhydrase inhibition assay
hCA-IX [2] = target: T2, hCA-IX (Homo sapiens, UniProt Q16790); experiment: biochemical
hCA-XII [3] = target: T1, hCA-XII; experiment: Enzyme kinetics; conditions: CA-XII; substrate 0-900 µM; inhibitor 0, 0.4, 0.6, 0.8 µM
hCA-II [4] = target: T3, hCA-II (Homo sapiens, UniProt P00918); experiment: Carbonic anhydrase inhibition assay
hCA-IX [5] = target: T2, hCA-IX; experiment: Enzyme kinetics; conditions: CA-IX; substrate 0-900 µM; inhibitor 0, 0.1, 0.2, 0.3 µM
hCA-II [6] = target: T3, hCA-II; experiment: Enzyme kinetics; conditions: CA-II; substrate 0-900 µM; inhibitor 0, 0.2, 0.4, 0.6 µM

T1 sequence (O43570 25-354): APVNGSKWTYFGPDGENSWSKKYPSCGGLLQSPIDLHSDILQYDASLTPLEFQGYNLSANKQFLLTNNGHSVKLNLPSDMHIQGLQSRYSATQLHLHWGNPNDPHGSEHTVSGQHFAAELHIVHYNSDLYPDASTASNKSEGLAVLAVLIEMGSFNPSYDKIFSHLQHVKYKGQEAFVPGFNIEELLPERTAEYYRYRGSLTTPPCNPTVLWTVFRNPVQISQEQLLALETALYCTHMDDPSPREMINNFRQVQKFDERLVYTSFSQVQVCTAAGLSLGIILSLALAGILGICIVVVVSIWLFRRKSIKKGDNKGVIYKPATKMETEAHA

| IC50 (hCA-XII [1]) | IC50 (hCA-IX [2]) | IC50 (hCA-II [4]) | inhibition of hCA-XII in words (hCA-XII [1]) | SMILES | further results |
| --- | --- | --- | --- | --- | --- |
| 1050 ± 100 nM | 2790 ± 20 nM |  |  | NS(=O)(=O)c1ccc(-c2ccc(Nc3ccc(Cl)cc3)cc2)cc1 [Compound 9a, 4’-((4-chlorophenyl)amino)-[1,1’-biphenyl]−4-sulfonamide] |  |
| 690 ± 150 nM | 1460 ± 80 nM | 1030 ± 100 nM |  | COC(=O)c1ccc(Nc2ccc(-c3ccc(S(N)(=O)=O)cc3)cc2)cc1 [Compound 9b, Methyl 4-((4’-sulfamoyl-[1,1’-biphenyl]−4-yl)amino)benzoate] | Mode of Enzyme Inhibition (hCA-XII [3]): Competitive |
|  |  |  | inactive | Cc1cc(C)cc(Nc2ccc(-c3ccc(S(N)(=O)=O)cc3)cc2)c1 [Compound 9c, 4’-((3,5-dimethylphenyl)amino)-[1,1’-biphenyl]−4-sulfonamide] | inhibition of hCA-IX in words (hCA-IX [2]): inactive; inhibition of hCA-II in words (hCA-II [4]): inactive |
|  |  | 1010 ± 100 nM |  | NS(=O)(=O)c1ccc(-c2ccc(Nc3ccncc3)cc2)cc1 [Compound 9d, 4’-(pyridin-4-ylamino)-[1,1’-biphenyl]−4-sulfonamide] | Mode of Enzyme Inhibition (hCA-IX [5]): Uncompetitive; inhibitor potential as compared to standard inhibitor acetazolamide (hCA-IX [2]; hCA-IX): 8 fold |
|  | 3430 ± 150 nM |  | moderate inhibition | NS(=O)(=O)c1ccc(-c2ccc(Nc3ccc(F)c(Cl)c3)cc2)cc1 [Compound 9e, 4’-((3-chloro-4-fluorophenyl)amino)-[1,1’-biphenyl]−4-sulfonamide] | Mode of Enzyme Inhibition (hCA-II [6]): Competitive |

From publication PMC12264121 (Scientific Reports, 2025)
